These results are taken from ChEMBL document CHEMBL4610099, “Galtonosides A-E: Antiproliferative and Antiplasmodial Cholestane Glycosides from Galtonia regalis” (J Nat Prod, 2020).

Data set [1] has as its system Plasmodium falciparum. The data set is described as follows: Antiplasmodial activity against ring stage Plasmodium falciparum Dd2 assessed as reduction in parasite growth after 72 hrs by SYBR Green 1 staining based assay. It counts as functional, organism-based. Particulars: Dd2, 72 h.
Data set [2] deals with Erythrocyte. Nature of the data set: Hemolytic activity against human erythrocytes infected with ring stage Plasmodium falciparum Dd2 assessed as morphological changes at IC50 concentration up to 72 hrs. Type of data set: ADME, cell-based.
The test system of data set [3] is Erythrocyte. The data set is described as follows: Hemolytic activity against human erythrocytes assessed as morphological changes at IC50 concentration up to 72 hrs. Type of data set: ADME, cell-based.
Data set [4] concerns A2780. Nature of the data set: Antiproliferative activity against human A2780 cells assessed as reduction in cell viability after 2 days hrs by AlamarBlue assay. It counts as functional, cell-based. The following applies: A2780, 48 h.
Data set [5] has as its system Plasmodium falciparum. Nature of the data set: Antiplasmodial activity against ring stage Plasmodium falciparum Dd2 infected in human erythrocytes assessed as reduction in trophozoites formation at 3 uM up to 72 hrs by Giemsa-staining based light microscopic analysis. It counts as functional, organism-based.
Data set [6] deals with Erythrocyte. The data set is described as follows: Hemolytic activity against human erythrocytes infected with ring stage Plasmodium falciparum Dd2 assessed as morphological changes at 3 uM up to 72 hrs by Giemsa-staining based light microscopic analysis. It counts as ADME, cell-based.
Data set [7] has as its system Erythrocyte. Nature of the data set: Hemolytic activity against human erythrocytes infected with ring stage Plasmodium falciparum Dd2 assessed as reduction in cell viability at 3 uM up to 72 hrs by Giemsa-staining based light microscopic analysis.
Data set [8] relates to Plasmodium falciparum. Nature of the data set: Antiplasmodial activity against ring stage Plasmodium falciparum Dd2 infected in human erythrocytes assessed as reduction in trophozoites formation at 11 uM up to 72 hrs by Giemsa-staining based light microscopic analysis. Type of data set: functional, organism-based.
For data set [9], the system named is Erythrocyte. Nature of the data set: Hemolytic activity against human erythrocytes infected with ring stage Plasmodium falciparum Dd2 assessed as morphological changes at 11 uM up to 72 hrs by Giemsa-staining based light microscopic analysis. It counts as ADME, cell-based.
The test system of data set [10] is Erythrocyte. The data set is described as follows: Hemolytic activity against human erythrocytes infected with ring stage Plasmodium falciparum Dd2 assessed as reduction in cell viability at 11 uM up to 72 hrs by Giemsa-staining based light microscopic analysis.
Data set [11] concerns Erythrocyte. Nature of the data set: Hemolytic activity against human erythrocytes infected with ring stage Plasmodium falciparum Dd2 assessed as reduction in cell viability at 6 uM up to 72 hrs by Giemsa-staining based light microscopic analysis.
The test system of data set [12] is Erythrocyte. Nature of the data set: Hemolytic activity against human erythrocytes infected with ring stage Plasmodium falciparum Dd2 assessed as morphological changes at 6 uM up to 72 hrs by Giemsa-staining based light microscopic analysis. It counts as ADME, cell-based.
Data set [13] deals with Plasmodium falciparum. Nature of the data set: Antiplasmodial activity against ring stage Plasmodium falciparum Dd2 infected in human erythrocytes assessed as reduction in trophozoites formation at 6 uM up to 72 hrs by Giemsa-staining based light microscopic analysis. It counts as functional, organism-based.

The source made the active and inactive calls. No cut-off for these calls is given here.

As usually defined, the IC50 is the concentration needed to halve the response being measured. On to `C[C@@H]1CC[C@H]2[C@@H](C)C(=O)O[C@@H]3O[C@@]4(C)CC[C@@H]1[C@]32OO4` [ARTEMISININ], for which the half-inhibitory concentration (IC50) in data set [1] turned out to be 6.5 nM.
Regarding `COc1ccc(C(=O)O[C@H]2[C@H](O[C@@H]3[C@@H](OC(C)=O)[C@H](O[C@H]4C[C@H]5[C@@H]6CC=C7C[C@@H](O)CC[C@]7(C)[C@H]6CC[C@]5(C)[C@@]4(O)[C@H](C)C(=O)CCC(C)C)OC[C@@H]3O)OC[C@@H](O)[C@@H]2O)cc1OC`, the Activity result in data set [2] and in [3] was “Non-Toxic” in each case. The 50% inhibitory concentration (IC50) in data set [1] worked out at 1510 nM; in [4], 100 nM.
For `CC(=O)O[C@H]1[C@H](O[C@H]2C[C@H]3[C@@H]4CC=C5C[C@@H](O)CC[C@]5(C)[C@H]4CC[C@]3(C)[C@@]2(O)[C@H](C)C(=O)CCC(C)C)OC[C@H](O)[C@@H]1O[C@@H]1OC[C@@H](O)[C@H](O)[C@H]1OC(=O)/C=C/c1ccccc1`, the Activity result in data set [2] and in data set [3] was “Non-Toxic” throughout. Further, the half-inhibitory concentration (IC50) in [1] was determined as 950 nM; in [4], 100 nM.
As for `COc1ccc(C(=O)O[C@H]2[C@H](O[C@H]3C[C@H]4[C@@H]5CC=C6C[C@@H](O)CC[C@]6(C)[C@H]5CC[C@]4(C)[C@@]3(O)[C@H](C)C(=O)CCC(C)C)OC[C@H](O)[C@@H]2O)cc1OC`, the Activity result in [2], in data set [6], in [3] and in data set [7] was “Non-Toxic” each time. In addition, in data set [5], the outcome was Active. For the same molecule, the concentration for half-maximal inhibition (IC50) in data set [1] is 210 nM; in data set [4], 140 nM.
Take `COc1ccc(C(=O)O[C@H]2[C@H](O[C@@H]3[C@@H](OC(C)=O)[C@H](O[C@H]4C[C@H]5[C@@H]6CC=C7C[C@@H](O)CC[C@]7(C)[C@H]6CC[C@]5(C)[C@H]4[C@H](C)C(=O)CCC(C)C)OC[C@@H]3O)OC[C@@H](O)[C@@H]2O)cc1OC`: the result in data set [8] was Active. In addition, the Activity result in data set [9], in [2], in data set [10] and in data set [3] was “Non-Toxic” in each case. Besides, the figures for the concentration for half-maximal inhibition (IC50) in data set [1] and in data set [4] were 630 nM and 100 nM, respectively.
Regarding `COc1cc(C(=O)O[C@H]2[C@H](O[C@@H]3[C@@H](OC(C)=O)[C@H](O[C@H]4C[C@H]5[C@@H]6CC=C7C[C@@H](O)CC[C@]7(C)[C@H]6CC[C@]5(C)[C@@]4(O)[C@H](C)C(=O)CCC(C)C)OC[C@@H]3O)OC[C@@H](O)[C@@H]2O)cc(OC)c1OC`, the outcome in data set [8] was Active. Besides, the Activity result in [9], in [2], in data set [10] and in data set [3] was “Non-Toxic” throughout. Further, the IC50 was found to be 560 nM in data set [1] and 90 nM in data set [4].
For the molecule `COc1cc(C(=O)O[C@H]2[C@H](O[C@@H]3[C@@H](OC(C)=O)[C@H](O[C@H]4C[C@H]5[C@@H]6CC=C7C[C@@H](O)CC[C@]7(C)[C@H]6CC[C@]5(C)[C@H]4[C@H](C)C(=O)CCC(C)C)OC[C@@H]3O)OC[C@@H](O)[C@@H]2O)cc(OC)c1OC`, the outcome in data set [8] was Active. Further, the Activity entry in data set [9], in [2], in [10] and in data set [3] was “Non-Toxic” each time. Also, the IC50 in [1] was 610 nM; in [4] it was 100 nM.
In the case of `CC(=O)O[C@H]1[C@H](O[C@H]2C[C@H]3[C@@H]4CC=C5C[C@@H](O)CC[C@]5(C)[C@H]4CC[C@]3(C)[C@H]2[C@H](C)C(=O)CCC(C)C)OC[C@H](O)[C@@H]1O[C@@H]1OC[C@@H](O)[C@H](O)[C@H]1OC(=O)/C=C/c1ccccc1`, the Activity entry in data set [2], in data set [11], in [3] and in data set [12] was “Non-Toxic” each time. Further, the IC50 in data set [1] is 420 nM; in data set [4], 100 nM. The outcome in [13] was Active.
